# Tests used:
# PI3K-alpha = target: T1, PI3K-alpha (Homo sapiens, UniProt P42336); assay: HTRF PI3K biochemical assay, alpha isoform; conditions: ratio PI3K-alpha IC50 value / PI3K-delta IC50 value
# T1 construct: purchased Upstate; Millipore 14-602
# PI3K-delta = target: T2, PI3K-delta (Homo sapiens, UniProt O00329); assay: HTRF PI3K biochemical assay, delta isoform; conditions: form screened (neutral or TFA salt) given, read-out: PI3Kdelta IC50
# T2 construct: purchased Upstate; Millipore 14-604
# T2 sequence (O00329 whole entry, canonical isoform): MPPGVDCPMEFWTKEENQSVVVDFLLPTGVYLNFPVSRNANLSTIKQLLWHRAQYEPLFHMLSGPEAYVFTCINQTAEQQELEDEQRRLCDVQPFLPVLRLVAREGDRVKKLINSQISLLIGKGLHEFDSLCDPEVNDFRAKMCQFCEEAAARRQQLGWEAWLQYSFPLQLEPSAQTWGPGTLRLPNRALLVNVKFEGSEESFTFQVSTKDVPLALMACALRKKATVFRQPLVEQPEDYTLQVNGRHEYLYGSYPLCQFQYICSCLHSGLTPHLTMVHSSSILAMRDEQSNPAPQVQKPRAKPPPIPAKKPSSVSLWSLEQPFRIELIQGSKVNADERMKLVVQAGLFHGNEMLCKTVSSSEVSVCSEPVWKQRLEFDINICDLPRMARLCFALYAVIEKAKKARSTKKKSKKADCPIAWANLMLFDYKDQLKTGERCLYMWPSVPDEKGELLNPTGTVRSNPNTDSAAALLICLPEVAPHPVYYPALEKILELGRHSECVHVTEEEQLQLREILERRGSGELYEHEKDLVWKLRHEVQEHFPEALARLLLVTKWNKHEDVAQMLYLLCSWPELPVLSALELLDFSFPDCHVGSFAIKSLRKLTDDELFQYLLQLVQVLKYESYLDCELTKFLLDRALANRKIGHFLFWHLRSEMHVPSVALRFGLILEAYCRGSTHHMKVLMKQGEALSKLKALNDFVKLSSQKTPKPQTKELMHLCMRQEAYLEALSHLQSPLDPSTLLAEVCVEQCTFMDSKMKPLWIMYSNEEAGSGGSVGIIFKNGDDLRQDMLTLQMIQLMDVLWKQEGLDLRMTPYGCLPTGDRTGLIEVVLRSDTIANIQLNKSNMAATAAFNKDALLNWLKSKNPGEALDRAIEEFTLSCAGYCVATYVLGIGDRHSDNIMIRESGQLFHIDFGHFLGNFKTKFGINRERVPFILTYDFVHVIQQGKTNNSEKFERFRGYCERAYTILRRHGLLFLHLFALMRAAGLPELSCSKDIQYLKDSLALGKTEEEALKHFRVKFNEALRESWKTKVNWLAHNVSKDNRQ
# T2 sequence (P27986 whole entry partner, canonical isoform): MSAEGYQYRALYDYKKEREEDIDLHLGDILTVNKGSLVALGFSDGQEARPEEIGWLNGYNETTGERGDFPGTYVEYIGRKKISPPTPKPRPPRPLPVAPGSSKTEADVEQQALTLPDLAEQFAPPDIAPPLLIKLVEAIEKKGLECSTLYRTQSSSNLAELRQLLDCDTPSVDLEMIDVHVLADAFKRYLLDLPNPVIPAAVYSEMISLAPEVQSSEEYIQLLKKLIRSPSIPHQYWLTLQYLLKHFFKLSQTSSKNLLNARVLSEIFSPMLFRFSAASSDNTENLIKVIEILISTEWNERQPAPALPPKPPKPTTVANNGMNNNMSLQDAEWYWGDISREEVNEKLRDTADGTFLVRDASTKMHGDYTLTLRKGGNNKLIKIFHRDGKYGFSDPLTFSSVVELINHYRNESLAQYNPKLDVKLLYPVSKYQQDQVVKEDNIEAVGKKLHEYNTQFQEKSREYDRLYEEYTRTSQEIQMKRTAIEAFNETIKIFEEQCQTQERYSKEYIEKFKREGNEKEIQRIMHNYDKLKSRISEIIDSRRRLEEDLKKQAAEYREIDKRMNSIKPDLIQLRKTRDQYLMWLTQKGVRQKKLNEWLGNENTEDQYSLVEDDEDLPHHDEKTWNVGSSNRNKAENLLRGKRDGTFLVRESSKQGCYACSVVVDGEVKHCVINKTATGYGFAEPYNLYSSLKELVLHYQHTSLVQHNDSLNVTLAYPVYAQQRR
# T1 sequence (P42336 whole entry, canonical isoform): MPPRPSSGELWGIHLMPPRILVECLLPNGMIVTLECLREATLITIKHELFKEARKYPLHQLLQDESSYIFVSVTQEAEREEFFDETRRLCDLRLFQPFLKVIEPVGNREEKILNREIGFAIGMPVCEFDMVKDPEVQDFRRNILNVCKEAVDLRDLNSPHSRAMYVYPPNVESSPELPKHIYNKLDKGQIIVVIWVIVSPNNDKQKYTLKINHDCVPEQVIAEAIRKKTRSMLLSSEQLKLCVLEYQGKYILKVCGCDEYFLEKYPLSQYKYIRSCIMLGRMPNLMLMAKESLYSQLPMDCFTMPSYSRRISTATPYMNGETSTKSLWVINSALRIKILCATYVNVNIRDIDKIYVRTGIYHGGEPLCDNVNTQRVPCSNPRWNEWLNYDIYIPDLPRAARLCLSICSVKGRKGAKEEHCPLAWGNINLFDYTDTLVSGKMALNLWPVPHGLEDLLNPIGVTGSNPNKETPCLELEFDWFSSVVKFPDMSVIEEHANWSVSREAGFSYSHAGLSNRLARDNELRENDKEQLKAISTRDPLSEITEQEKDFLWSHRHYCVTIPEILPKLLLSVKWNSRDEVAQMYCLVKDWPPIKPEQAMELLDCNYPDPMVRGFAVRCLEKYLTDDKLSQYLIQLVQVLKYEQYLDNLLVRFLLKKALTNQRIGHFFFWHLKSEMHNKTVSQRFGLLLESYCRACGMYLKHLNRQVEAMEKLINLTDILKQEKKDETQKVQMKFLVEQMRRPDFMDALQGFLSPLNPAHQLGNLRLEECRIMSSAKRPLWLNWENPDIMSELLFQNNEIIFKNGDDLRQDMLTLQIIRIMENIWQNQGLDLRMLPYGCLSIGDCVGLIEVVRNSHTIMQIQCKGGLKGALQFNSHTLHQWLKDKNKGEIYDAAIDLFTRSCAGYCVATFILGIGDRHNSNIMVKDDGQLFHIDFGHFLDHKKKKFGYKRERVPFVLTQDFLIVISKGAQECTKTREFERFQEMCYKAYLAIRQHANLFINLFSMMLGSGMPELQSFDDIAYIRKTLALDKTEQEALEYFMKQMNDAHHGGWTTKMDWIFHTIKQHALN
# T1 sequence (P27986 whole entry partner, canonical isoform): as the sequence (P27986 whole entry partner, canonical isoform) above
Structure (SMILES),Selectivity versus PI3Kalpha (PI3K-alpha),IC50 (PI3K-delta) [nM]
"CCn1c(-c2cnc(C)nc2)nc2c(NC3CN(C(=O)C4CC4)CC3C)ncnc21 (racemic) [Compound 3-16, N-[(3R,4R and 3S,4S)-1-(cyclopropylcarbonyl)-4-methylpyrrolidin-3-yl]-9-ethyl-8-(2-methylpyrimidin-5-yl)-9H-purin-6-amine]",>10,3.4
"CCC(=O)N1CC[C@H](Nc2ncnc3c2nc(-c2ccc(C(F)(F)F)nc2)n3C)C1 [Compound 3-1, (S)-1-(3-((9-methyl-8-(6-(trifluoromethyl)pyridin-3-yl)-9H-purin-6-yl)amino)pyrrolidin-1-yl)propan-1-one]",>10,11
"CCn1c(-c2cnc(OC)c(C)c2)nc2c(N[C@H]3CCN(C(=O)OC(C)(C)C)C3)ncnc21 [Compound 1-5, (S)-tert-butyl 3-((9-ethyl-8-(6-methoxy-5-methylpyridin-3-yl)-9H-purin-6-yl)amino)pyrrolidine-1-carboxylate]",>10,< 1
"CCC(=O)N1CC[C@H](Nc2ncnc3c2nc(-c2ccc(OC)c(F)c2)n3C)C1 [Compound 3-10, 8-(3-fluoro-4-methoxyphenyl)-9-methyl-N-[(3S)-1-propanoylpyrrolidin-3-yl]-9H-purin-6-amine]",>10,1.8
"CCn1c(-c2cnc(C)nc2)nc2c(N[C@H]3CCN(C(=O)c4cn(C)nn4)C3)ncnc21 [Compound 2-75, 9-ethyl-8-(2-methylpyrimidin-5-yl)-N-{(3S)-1-[(1-methyl-1H-1,2,3-triazol-4-yl)carbonyl]pyrrolidin-3-yl}-9H-purin-6-amine]",>10,4.7
"CCC(=O)N1CC[C@H](Nc2ncnc3c2nc(C2CC2)n3C)C1 [Compound 7-9, 8-cyclopropyl-9-methyl-N-[(3S)-1-propanoylpyrrolidin-3-yl]-9H-purin-6-amine]",>10,98
"CCn1c(C(F)F)nc2c(N[C@H]3CCN(C(=O)N4CC(OC)C4)C3)ncnc21 [Compound 7-28, 8-(difluoromethyl)-9-ethyl-N-{(3S)-1-[(3-methoxyazetidin-1-yl)carbonyl]pyrrolidin-3-yl}-9H-purin-6-amine]",>10,3.2
"CCn1c(C(=O)N2CCOCC2)nc2c(N[C@H]3CCN(C(=O)C4CC4)C3)ncnc21 [Compound 6-4, N-[(3S)-1-(cyclopropylcarbonyl)pyrrolidin-3-yl]-9-ethyl-8-(morpholin-4-ylcarbonyl)-9H-purin-6-amine]",>10,140
"CCC(=O)N1CC[C@H](Nc2ncnc3c2nc(-c2cnn(CC)c2C)n3CC(F)F)C1 [Compound 9-4, 9-(2,2-difluoroethyl)-8-(1-ethyl-5-methyl-1H-pyrazol-4-yl)-N-[(3S)-1-propanoylpyrrolidin-3-yl]-9H-purin-6-amine]",>10,< 1
"CCn1c(-c2cnc(C)nc2)nc2c(N[C@H]3CCN(C(=O)C4CCCCN4)C3)ncnc21 (mixture of isomers) [Compound 2-83, 9-ethyl-8-(2-methylpyrimidin-5-yl)-N-[(3S)-1-((R and S)-piperidin-2-ylcarbonyl)pyrrolidin-3-yl]-9H-purin-6-amine]",>10,19
"CCC(=O)N1CC[C@H](Nc2ncnc3c2nc(C(F)F)n3CC)C1 [Compound 7-13, 8-(difluoromethyl)-9-ethyl-N-[(3S)-1-propanoylpyrrolidin-3-yl]-9H-purin-6-amine]",>10,32
"CCn1c(-n2cnc3ccccc32)nc2c(N[C@H]3CCN(C(=O)C4CC4)C3)ncnc21 [Compound 8-2, 8-(1H-benzimidazol-1-yl)-N-[(3S)-1-(cyclopropylcarbonyl)pyrrolidin-3-yl]-9-ethyl-9H-purin-6-amine]",>10,< 1
"CCCn1c(-c2cnc(C)nc2)nc2c(N[C@H]3CCN(C(=O)CC)C3)ncnc21 [Compound 9-2, 8-(2-methylpyrimidin-5-yl)-N-[(3S)-1-propanoylpyrrolidin-3-yl]-9-propyl-9H-purin-6-amine]",>10,36
"CCC(=O)N1CC[C@H](Nc2ncnc3c2nc(-c2ccc4[nH]ncc4c2)n3C)C1 [Compound 3-3, (S)-1-(3-((8-(1H-indazol-5-yl)-9-methyl-9H-purin-6-yl)amino)pyrrolidin-1-yl)propan-1-one]",>10,4.3
"CCn1c(-c2cnc(C)nc2)nc2c(N[C@H]3CCN(C(=O)C4(N)CC4)C3)ncnc21 [Compound 2-84, N-{(3S)-1-[(1-aminocyclopropyl)carbonyl]pyrrolidin-3-yl}-9-ethyl-8-(2-methylpyrimidin-5-yl)-9H-purin-6-amine]",>10,20
"CCn1c(-c2cnc(C)nc2)nc2c(N[C@H]3C[C@H](CO)N(C(=O)C4CC4)C3)ncnc21 [Compound 2-52, [(2R,4S)-1-(cyclopropylcarbonyl)-4-{[9-ethyl-8-(2-methylpyrimidin-5-yl)-9H-purin-6-yl]amino}pyrrolidin-2-yl]methanol]",>10,4.9
"CCn1c(-c2cnc(C)nc2)nc2c(N[C@H]3CCN(C(=O)C4C(C)(C)C4(C)C)C3)ncnc21 [Compound 2-60, 9-ethyl-8-(2-methylpyrimidin-5-yl)-N-{(3S)-1-[(2,2,3,3-tetramethylcyclopropyl)carbon-yl]pyrrolidin-3-yl}-9H-purin-6-amine]",>10,1.6
"CCn1c(-c2ccc(C(F)(F)F)cc2)nc2c(N[C@H]3CCN(C(=O)OC(C)(C)C)C3)ncnc21 [Compound 1-24, tert-butyl (3S)-3-({9-ethyl-8-[4-(trifluoromethyl)phenyl]-9H-purin-6-yl}amino)pyrrolidine-1-carboxylate]",>10,1.5
"CCn1c(Oc2ccc(OC)c(F)c2)nc2c(N[C@H]3CCN(C(=O)C4CC4)C3)ncnc21 [Compound 8-6, N-[(3S)-1-(cyclopropylcarbonyl)pyrrolidin-3-yl]-9-ethyl-8-(3-fluoro-4-methoxyphenoxy)-9H-purin-6-amine]",>10,8.2
"CCn1c(-c2cnc(C)nc2)nc2c(N[C@H]3CCN(C(=O)C45CC(C4)C5)C3)ncnc21 [Compound 2-77, N-[(3S)-1-(bicyclo[1.1.1]pent-1-ylcarbonyl)pyrrolidin-3-yl]-9-ethyl-8-(2-methylpyrimidin-5-yl)-9H-purin-6-amine]",>10,2.1
"CCn1ncc(-c2nc3c(N[C@H]4CCN(C(=O)C5CCOC(C)(C)C5)C4)ncnc3n2C)c1C (stereo partly drawn) [Compound 2-6, N-{(3S)-1-[(2,2-dimethyltetrahydro-2H-pyran-4-yl)carbonyl]pyrrolidin-3-yl}-8-(1-ethyl-5-methyl-1H-pyrazol-4-yl)-9-methyl-9H-purin-6-amine]",>10,1.6
"CCn1c(-c2cnc(C)nc2)nc2c(N[C@H]3CCN(C(=O)c4nc(C)oc4C)C3)ncnc21 [Compound 2-19, (S)-(2,5-dimethyloxazol-4-yl)(3-((9-ethyl-8-(2-methylpyrimidin-5-yl)-9H-purin-6-yl)amino)pyrrolidin-1-yl)methanone]",>10,2.1

# Further lines, results first:
Selectivity versus PI3Kalpha (PI3K-alpha),IC50 (PI3K-delta) [nM],Structure (SMILES)
>10,63,"CCn1c(C#CCOC)nc2c(N[C@H]3CCN(C(=O)C4CC4)C3)ncnc21 [Compound 16-3, N-[(3S)-1-(cyclopropylcarbonyl)pyrrolidin-3-yl]-9-ethyl-8-(3-methoxyprop-1-yn-1-yl)-9H-purin-6-amine]"
>10,1.4,"CCn1c(-c2cnc(C)nc2)nc2c(N[C@H]3CCN(C(=O)N4CCC4)C3)ncnc21 [Compound 12-9, N-[(3S)-1-(azetidin-1-ylcarbonyl)pyrrolidin-3-yl]-9-ethyl-8-(2-methylpyrimidin-5-yl)-9H-purin-6-amine]"
>10,< 1,"CCn1c(-c2cnc(C)nc2)nc2c(N[C@H]3CCN(C(=O)N4CC(OC)C4)C3)ncnc21 [Compound 12-10, 9-ethyl-N-{(3S)-1-[(3-methoxyazetidin-1-yl)carbonyl]pyrrolidin-3-yl}-8-(2-methylpyrimidin-5-yl)-9H-purin-6-amine]"
>10,46,"CCn1c(-c2cnc(C)nc2)nc2c(N[C@H]3C[C@@H](C(=O)NC)N(C(=O)C4CC4)C3)ncnc21 [Compound 15-9, (4S)-1-(cyclopropylcarbonyl)-4-{[9-ethyl-8-(2-methylpyrimidin-5-yl)-9H-purin-6-yl]amino}-N-methyl-L-prolinamide]"
>10,4.3,"CCn1c(-c2cnc(C)nc2)nc2c(N[C@H]3CCN(C(=O)OCCCN(C)C)C3)ncnc21 [Compound 13-11, 3-(dimethylamino)propyl (3S)-3-{[9-ethyl-8-(2-methylpyrimidin-5-yl)-9H-purin-6-yl]amino}pyrrolidine-1-carboxylate]"
>10,3.9,"CCn1c(-c2cnc(C)nc2)nc2c(N[C@H]3CCN(C(=O)OC4CCCCC4)C3)ncnc21 [Compound 13-8, cyclohexyl (3S)-3-{[9-ethyl-8-(2-methylpyrimidin-5-yl)-9H-purin-6-yl]amino}pyrrolidine-l-carboxylate]"
>10,13,"CCOC(=O)CCNC(=O)N1CC[C@H](Nc2ncnc3c2nc(-c2cnc(C)nc2)n3CC)C1 [Compound 12-17, ethyl N-{[(3S)-3-{[9-ethyl-8-(2-methylpyrimidin-5-yl)-9H-purin-6-yl]amino}pyrrolidin-1-yl]carbonyl}-beta-alaninate]"
>10,1.9,"CCn1c(C#Cc2ccccc2)nc2c(N[C@H]3CCN(C(=O)C4CC4)C3)ncnc21 [Compound 16-1, N-[(3S)-1-(cyclopropylcarbonyl)pyrrolidin-3-yl]-9-ethyl-8-(phenylethynyl)-9H-purin-6-amine]"

# Source: patent US9938281B2 (Merck Sharp & Dohme Corp., priority 2012, dated 2018)
